The target in the experiment is T1, G protein-coupled receptor 119 (GPR-119) (Mesocricetus auratus, UniProt A0A1U8CD06).
T1 construct: hamster-derived β-cells containing G protein-coupled receptor 119 (GPR-119), HIT-T15 cells; host or cells: HIT-T15 (hamster pancreatic β-cells)
T1 sequence (A0A1U8CD06 1-334): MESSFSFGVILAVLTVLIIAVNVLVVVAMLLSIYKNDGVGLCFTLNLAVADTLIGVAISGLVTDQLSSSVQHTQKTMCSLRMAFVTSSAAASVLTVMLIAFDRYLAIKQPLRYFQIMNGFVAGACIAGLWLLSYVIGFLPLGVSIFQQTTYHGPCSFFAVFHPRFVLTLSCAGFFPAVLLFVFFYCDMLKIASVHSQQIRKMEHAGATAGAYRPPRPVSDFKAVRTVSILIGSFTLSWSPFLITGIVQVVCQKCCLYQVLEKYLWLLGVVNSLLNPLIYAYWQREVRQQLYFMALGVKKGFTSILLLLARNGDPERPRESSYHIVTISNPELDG
Kind of experiment: cAMP activity in HIT-T15 cells (cAMP dynamic kit, FRET). In kind it is cell-based, hamster. In a few lines:
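Hamster HIT-T15 cells (60,000/well) were treated next day with compound at six concentrations, 0.0032–10 μM, for 1 h at 37° C. Cells were then lysed and cAMP measured by competitive HTRF immunoassay (D2-cAMP, cryptate anti-cAMP). Activity was derived as the change in FRET signal relative to DMSO.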

Where [1] appears, read: 1 hour at 37° C., six concentrations 0.0032 to 10 μM, read-out: EC50.

Data on 26 compounds can be found in patent publication US10723699B2 (Hyundai Pharm Co., Ltd., priority 2015, dated 2020).

Read-outs that look alike come from different tables or passages of the source. Bounds are passed on as bounds.

The EC50 is the concentration at which the effect is half-maximal.

In the case of `CCc1cnc(N2CCC(COc3ccc(C4=CCC(C(=O)N(CC)CCO)CC4)cc3F)CC2)nc1` (stereo not drawn) [Example 360, N-ethyl-4-(4-((1-(5-ethylpyrimidin-2-yl)piperidin-4-yl)methoxy)-3-fluorophenyl)-N-(2-hydroxyethyl)cyclohex-3-enecarboxamide], the EC50 under setting [1] is 8.8 nM and the EC50 (Table 2, read-out: EC50 value) is no more than 50 nM.
On to `CCc1cnc(N2CCC(COc3ccc(C4=CCC(C(=O)N5CCC5)CC4)cc3F)CC2)nc1` (stereo not drawn) [Example 301, azetidin-1-yl(4-(4-((1-(5-ethylpyrimidin-2-yl)piperidin-4-yl)methoxy)-3-fluorophenyl)cyclohex-3-enyl)methanone], for which the EC50 runs as follows: under setting [1], 19 nM; (Table 2, read-out: EC50 value) no more than 50 nM.
Take `CC(C)c1noc(N2CCC(COc3ccc(C4=CCC(C(=O)N5CCN(CCCO)CC5)CC4)cc3F)CC2)n1` (stereo not drawn) [Example 368, (4-(3-fluoro-4-((1-(3-isopropyl-1,2,4-oxadiazol-5-yl)piperidin-4-yl)methoxy)phenyl)cyclohex-3-enyl)(4-(3-hydroxypropyl)piperazin-1-yl)methanone]: the EC50 was 48 nM under setting [1] and no more than 50 nM (Table 2, read-out: EC50 value).
Consider `CC(C)(C)OC(=O)N1CCC(COc2ccc(C3=CCC(C(=O)N4CCC(CO)CC4)CC3)nc2)CC1` (stereo not drawn) [Example 325, tert-butyl 4-((6-(4-(4-(hydroxymethyl)piperidine-1-carbonyl)cyclohex-1-enyl)pyridin-3-yloxy)methyl)piperidine-1-carboxylate], for which the EC50 under setting [1] worked out at 53 nM.
The same measure, in the same setting: then `CC(C)c1noc(N2CCC(COc3ccc(C4=CCC(C(=O)N5CCN(C6CC6)CC5)CC4)cc3)CC2)n1` (stereo not drawn) [Example 397, (4-cyclopropylpiperazin-1-yl)(4-(4-((1-(3-isopropyl-1,2,4-oxadiazol-5-yl)piperidin-4-yl)methoxy)phenyl)cyclohex-3-enyl)methanone], with 9.9 nM.
As for `CCc1cnc(N2CCC(COc3ccc(C4=CCC(C(=O)NCC(C)(C)CO)CC4)cc3F)CC2)nc1` (stereo not drawn) [Example 378, 4-(4-((1-(5-ethylpyrimidin-2-yl)piperidin-4-yl)methoxy)-3-fluorophenyl)-N-(3-hydroxy-2,2-dimethylpropyl)cyclohex-3-enecarboxamide], the EC50 under setting [1] amounted to 20 nM and the EC50 (Table 2, read-out: EC50 value) is no more than 50 nM.
For the compound `CCc1cnc(N2CCC(COc3ccc(C4=CCC(C(=O)N5CCOCC5)CC4)c(F)c3)CC2)nc1` (stereo not drawn) [Example 422, (4-(4-((1-(5-ethylpyrimidin-2-yl)piperidin-4-yl)methoxy)-2-fluorophenyl)cyclohex-3-enyl)(morpholino)methanone], the EC50 was 18 nM under setting [1] and no more than 50 nM (Table 2, read-out: EC50 value).
`CCc1cnc(N2CCC(COc3ccc(C4=CCC(C(=O)NC5CCC5)CC4)cc3F)CC2)nc1` (stereo not drawn) [Example 303, N-cyclobutyl-4-(4-((1-(5-ethylpyrimidin-2-yl)piperidin-4-yl)methoxy)-3-fluorophenyl)cyclohex-3-enecarboxamide]: the EC50 was 29 nM under setting [1] and no more than 50 nM (Table 2, read-out: EC50 value).
`CCc1cnc(N2CCC(COc3ccc(C4=CCC(C(=O)N5CCC(F)(F)C5)CC4)c(F)c3)CC2)nc1` (stereo not drawn) [Example 454, (3,3-difluoropyrrolidin-1-yl)(4-(4-((1-(5-ethylpyrimidin-2-yl)piperidin-4-yl)methoxy)-2-fluorophenyl)cyclohex-3-enyl)methanone]: the concentration giving a half-maximal response (EC50) under setting [1] is 15 nM and the EC50 (Table 2, read-out: EC50 value) is no more than 50 nM.
For `CC(C)c1noc(N2CCC(COc3ccc(C4=CCC(C(=O)N5CCOCC5)CC4)cn3)CC2)n1` (stereo not drawn) [Example 317, (4-(6-((1-(3-isopropyl-1,2,4-oxadiazol-5-yl)piperidin-4-yl)methoxy)pyridin-3-yl)cyclohex-3-enyl)(morpholino)methanone], in that order: 50 nM and no more than 50 nM.
For `CC(C)c1noc(N2CCC(COc3ccc(C4=CCC(C(=O)N5CCC(CO)CC5)CC4)cc3F)CC2)n1` (stereo not drawn) [Example 333, (4-(3-fluoro-4-((1-(3-isopropyl-1,2,4-oxadiazol-5-yl)piperidin-4-yl)methoxy)phenyl)cyclohex-3-enyl)(4-(hydroxymethyl)piperidin-1-yl)methanone] the same measures were 30 nM and no more than 50 nM.
Regarding `O=C(OC(CF)CF)N1CCC(COc2ccc(C3=CCC(C(=O)N4CCOCC4)CC3)cc2F)CC1` (stereo not drawn) [Example 447, 1,3-difluoropropan-2-yl 4-((2-fluoro-4-(4-(morpholine-4-carbonyl)cyclohex-1-enyl)phenoxy)methyl)piperidine-1-carboxylate], under setting [1], the EC50 came out at 62 nM.
For `CCc1cnc(N2CCC(COc3ccc(C4=CCC(C(=O)N5C/C(=N\OC)C(CO)(CO)C5)CC4)cc3)CC2)nc1` (stereo not drawn) [Example 253, (Z)-(3,3-bis(hydroxymethyl)-4-(methoxyimino)pyrrolidin-1-yl)(4-(4-((1-(5-ethylpyrimidin-2-yl)piperidin-4-yl)methoxy)phenyl)cyclohex-3-enyl)methanone], the EC50 (Table 2, read-out: EC50 value) was no more than 50 nM.
For `CCc1cnc(N2CCC(COc3ccc(C4=CCC(C(=O)N5CCC(CCO)CC5)CC4)cc3)CC2)nc1` (stereo not drawn) [Example 173, (4-(4-((1-(5-ethylpyrimidin-2-yl)piperidin-4-yl)methoxy)phenyl)cyclohex-3-enyl)(4-(2-hydroxyethyl)piperidin-1-yl)methanone], the half-maximal effective concentration (EC50) (Table 2, read-out: EC50 value) is no more than 50 nM.
Consider `CCc1cnc(N2CCC(COc3ccc(C4=CCC(C(=O)N5CCCC5)CC4)cc3C(F)(F)F)CC2)nc1` (stereo not drawn) [Example 374], for which, under setting [1], the EC50 was 150 nM.
With `CCc1cnc(N2CCC(COc3ccc(C4=CCC(C(=O)N5CCN(C)CC5)CC4)cc3F)CC2)nc1` (stereo not drawn) [Example 384, (4-(4-((1-(5-ethylpyrimidin-2-yl)piperidin-4-yl)methoxy)-3-fluorophenyl)cyclohex-3-enyl)(4-methylpiperazin-1-yl)methanone], the EC50 under setting [1] is 100 nM.
As for `CCc1cnc(N2CCC(COc3ccc(C4=CCC(C(=O)N5CCOCC5)CC4)cn3)CC2)nc1` (stereo not drawn) [Example 351, (4-(6-((1-(5-ethylpyrimidin-2-yl)piperidin-4-yl)methoxy)pyridin-3-yl)cyclohex-3-enyl)(morpholino)methanone], the EC50 was 41 nM under setting [1] and no more than 50 nM (Table 2, read-out: EC50 value).
As for `CCc1cnc(N2CCC(COc3ccc(C4=CCC(C(=O)N5CCCC5)CC4)cc3N)CC2)nc1` (stereo not drawn) [Example 393, (4-(3-amino-4-((1-(5-ethylpyrimidin-2-yl)piperidin-4-yl)methoxy)phenyl)cyclohex-3-enyl)(pyrrolidin-1-yl)methanone], the EC50 under setting [1] was 130 nM.
Turning to `O=C(OC(C(F)(F)F)C(F)(F)F)N1CCC(COc2ccc(C3=CCC(C(=O)N4CCCC4)CC3)cc2F)CC1` (stereo not drawn) [Example 405, 1,1,1,3,3,3-hexafluoropropan-2-yl 4-((2-fluoro-4-(4-(pyrrolidine-1-carbonyl)cyclohex-1-enyl)phenoxy)methyl)piperidine-1-carboxylate], the EC50 under setting [1] was 59 nM.
On the same count and under the same terms, then `CCc1cnc(N2CCC(COc3ccc(C4=CCC(C(=O)NCC(F)(F)F)CC4)cc3F)CC2)nc1` (stereo not drawn) [Example 307, 4-(4-((1-(5-ethylpyrimidin-2-yl)piperidin-4-yl)methoxy)-3-fluorophenyl)-N-(2,2,2-trifluoroethyl)cyclohex-3-enecarboxamide], with 88 nM.
Take `CC(C)(C)OC(=O)N1CCC(COc2ccc(C3=CCC(C(=O)N4CCOCC4)CC3)cc2F)CC1` (single isomer, unassigned; (-)) [Example 443, (−)-tert-butyl 4-((2-fluoro-4-(4-(morpholine-4-carbonyl)cyclohex-1-enyl)phenoxy)methyl)piperidine-1-carboxylate]: the EC50 under setting [1] was 38 nM.
On to `CCc1cnc(N2CCC(COc3ccc(C4=CCC(C(=O)N5CCCC5)CC4)cc3F)CC2)nc1` (single isomer, unassigned; (-)) [Example 429, (−)-(4-(4-((1-(5-ethylpyrimidin-2-yl)piperidin-4-yl)methoxy)-3-fluorophenyl)cyclohex-3-enyl)(pyrrolidin-1-yl)methanone], for which the concentration for a half-maximal effect (EC50) is 21 nM under setting [1] and no more than 50 nM (Table 2, read-out: EC50 value).
Regarding `CCc1cnc(N2CCC(COc3ccc(C4=CCC(C(=O)NCC(F)F)CC4)cc3F)CC2)nc1` (stereo not drawn) [Example 314, N-(2,2-difluoroethyl)-4-(4-((1-(5-ethylpyrimidin-2-yl)piperidin-4-yl)methoxy)-3-fluorophenyl)cyclohex-3-enecarboxamide], under setting [1], the EC50 is 61 nM.
As to `CC(C)c1noc(N2CCC(COc3ccc(C4=CCC(C(=O)N5CCC6(CC5)OCCO6)CC4)cc3F)CC2)n1` (stereo not drawn) [Example 370, (4-(3-fluoro-4-((1-(3-isopropyl-1,2,4-oxadiazol-5-yl)piperidin-4-yl)methoxy)phenyl)cyclohex-3-enyl)(1,4-dioxa-8-azaspiro[4.5]decan-8-yl)methanone], the EC50 by setting is: (EC50 (nM), 1 hour at 37° C., six concentrations 0.0032 to 10 μM) 15 nM; (EC50 value, Table 2) no more than 50 nM.
On to `CCc1cnc(N2CCC(COc3ccc(C4=CCC(C(=O)NC5CC5)CC4)cc3F)CC2)nc1` (stereo not drawn) [Example 302, N-cyclopropyl-4-(4-((1-(5-ethylpyrimidin-2-yl)piperidin-4-yl)methoxy)-3-fluorophenyl)cyclohex-3-enecarboxamide], for which, under setting [1], the 50% effective concentration (EC50) is 110 nM.
As to `CCc1cnc(N2CCC(COc3ccc(C4=CCC(C(=O)N5CCC(=NO)CC5)CC4)cc3F)CC2)nc1` (stereo not drawn) [Example 377, (4-(4-((1-(5-ethylpyrimidin-2-yl)piperidin-4-yl)methoxy)-3-fluorophenyl)cyclohex-3-enyl)(4-(hydroxyimino)piperidin-1-yl)methanone], the EC50 under setting [1] came to 11 nM and the EC50 (Table 2, read-out: EC50 value) was no more than 50 nM.
